Target: canine TRPM8 (Canis lupus familiaris, UniProt Q1A7N1)
Test: In Vitro Canine TRPM8 Functional Assay (Ca2+ fluorescence, icilin activation)
Type: cell-based
Conditions: for inhibition at 0.2 µM: compound at 0.2 μM, read-out: % Inh @ 0.2; for inhibition at 0.2 µM / inhibition at 0.5 µM: canine TRPM8, icilin activation; for inhibition at 0.5 µM: compound at 0.5 μM, read-out: % Inh @ 0.5; for IC50: HEK293 cells stably expressing canine TRPM8, icilin activation, eight-point dose-response, read-out: IC50
In short: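 HEK293 cells stably expressing canine TRPM8 loaded with Calcium 3 dye; compound added and Ca2+ fluorescence monitored 5 min before icilin at a final level giving ~80% maximal response, read on FLIPR or FDSS. EC50 or IC50 from eight-point dose-response, quadruplicate wells per point.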

Chain of canine TRPM8 (Q1A7N1 1-1104): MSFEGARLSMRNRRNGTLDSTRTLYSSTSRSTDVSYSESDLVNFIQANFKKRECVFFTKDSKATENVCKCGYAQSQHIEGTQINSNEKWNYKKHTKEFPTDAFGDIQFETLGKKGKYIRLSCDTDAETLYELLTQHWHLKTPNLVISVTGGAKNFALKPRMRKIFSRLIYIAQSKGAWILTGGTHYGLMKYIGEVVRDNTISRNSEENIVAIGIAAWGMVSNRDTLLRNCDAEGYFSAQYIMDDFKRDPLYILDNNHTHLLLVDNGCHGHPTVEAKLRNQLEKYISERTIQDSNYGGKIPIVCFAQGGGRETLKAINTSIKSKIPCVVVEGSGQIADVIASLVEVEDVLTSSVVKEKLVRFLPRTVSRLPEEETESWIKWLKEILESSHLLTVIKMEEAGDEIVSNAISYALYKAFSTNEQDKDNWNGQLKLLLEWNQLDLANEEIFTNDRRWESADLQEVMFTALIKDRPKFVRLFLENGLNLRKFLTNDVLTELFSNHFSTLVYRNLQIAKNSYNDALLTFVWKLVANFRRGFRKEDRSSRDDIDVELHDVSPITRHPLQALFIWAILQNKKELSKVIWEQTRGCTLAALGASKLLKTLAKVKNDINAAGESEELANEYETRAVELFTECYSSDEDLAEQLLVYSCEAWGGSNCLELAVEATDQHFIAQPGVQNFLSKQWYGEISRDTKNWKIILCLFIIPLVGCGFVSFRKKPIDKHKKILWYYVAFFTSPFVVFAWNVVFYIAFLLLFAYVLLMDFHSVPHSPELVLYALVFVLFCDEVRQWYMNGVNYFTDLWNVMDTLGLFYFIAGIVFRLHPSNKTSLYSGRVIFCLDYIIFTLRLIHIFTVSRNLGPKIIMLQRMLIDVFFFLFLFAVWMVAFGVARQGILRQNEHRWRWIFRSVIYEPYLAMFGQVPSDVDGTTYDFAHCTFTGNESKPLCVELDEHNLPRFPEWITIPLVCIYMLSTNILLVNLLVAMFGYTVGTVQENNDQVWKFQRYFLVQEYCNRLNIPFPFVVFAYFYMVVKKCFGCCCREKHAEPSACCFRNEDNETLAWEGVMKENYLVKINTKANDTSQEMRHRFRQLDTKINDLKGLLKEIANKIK

Row | inhibition at 0.2 µM | inhibition at 0.5 µM | IC50 | SMILES
1 | 14% |  |  | CCS(=O)(=O)N(CCN1CCOCC1)c1sc2ccccc2c1C(C)=O [Compound 124, N-(3-Acetyl-benzo[b]thiophen-2-yl)-N-(2-morpholin-4-yl-ethyl)-ethanesulfonamide]
2 |  | 45% |  | Cc1c(N(Cc2ccc(F)c(F)c2)S(=O)(=O)Cc2ccccc2)sc2ccccc12 [Compound 126, N-(3,4-Difluoro-benzyl)-N-(3-methyl-benzo[b]thiophen-2-yl)-phenyl-methanesulfonamide]
3 |  | 98% | 8 nM | Cc1c(N(Cc2ccc(F)c(F)c2)S(=O)(=O)c2cccc(F)c2)sc2ccccc12 [Compound 127, N-(3,4-Difluoro-benzyl)-N-(3-methyl-benzo[b]thiophen-2-yl)-3-fluoro-benzenesulfonamide]
4 |  | 99% | 9 nM | Cc1c(N(Cc2ccc(F)c(F)c2)S(=O)(=O)c2ccccc2F)sc2ccccc12 [Compound 128, N-(3,4-Difluoro-benzyl)-N-(3-methyl-benzo[b]thiophen-2-yl)-2-fluoro-benzenesulfonamide]
5 |  | 101% | 2.8 nM | Cc1c(N(Cc2ccc(F)c(F)c2)S(=O)(=O)c2cccs2)sc2ccccc12 [Compound 129, N-(3,4-Difluoro-benzyl)-N-(3-methyl-benzo[b]thiophen-2-yl)-thiene-2-ylsulfonamide]
6 |  | 98% | 104 nM | Cn1cnc(S(=O)(=O)N(Cc2ccc(F)c(F)c2)c2cc3ccccc3s2)c1 [Compound 130, N-(Benzo[b]thiophen-2-yl)-N-(3,4-difluoro-benzyl)-1-methyl-1H-imidazole-4-sulfonamide]
7 |  | 95% | 48 nM | O=S(=O)(c1cccc(F)c1)N(Cc1ccc(F)c(F)c1)c1cc2ccccc2s1 [Compound 131, N-(Benzo[b]thiophen-2-yl)-N-(3,4-difluoro-benzyl)-3-fluoro-benzenesulfonamide]
8 |  | 56% |  | O=S(=O)(c1ccc(C(F)(F)F)cc1)N(Cc1ccc(F)c(F)c1)c1cc2ccccc2s1 [Compound 132, N-(Benzo[b]thiophen-2-yl)-N-(3,4-difluoro-benzyl)-4-trifluoromethyl-benzenesulfonamide]
9 |  | 97% | 60 nM | CS(=O)(=O)CS(=O)(=O)N(Cc1ccc(F)c(F)c1)c1cc2ccccc2s1 [Compound 133, N-(Benzo[b]thiophen-2-yl)-N-(3,4-difluoro-benzyl)-C-methanesulfonyl-methanesulfonamide]
10 | 30% |  |  | COc1ccc(S(=O)(=O)N(Cc2ccc(F)c(C(F)(F)F)c2)c2cc3ccccc3s2)cc1 [Compound 134, N-(Benzo[b]thiophen-2-yl)-N-(4-fluoro-3-trifluoromethyl-benzyl)-4-methoxy-benzenesulfonamide]
11 | 18% |  |  | COC(=O)c1ccc(S(=O)(=O)N(Cc2ccc(F)c(C(F)(F)F)c2)c2cc3ccccc3s2)cc1 [Compound 135, N-(Benzo[b]thiophen-2-yl)-N-(4-fluoro-3-trifluoromethyl-benzyl)-4-carbomethoxy-benzenesulfonamide]
12 | 40% |  |  | COC(=O)c1cccc(S(=O)(=O)N(Cc2ccc(F)c(C(F)(F)F)c2)c2cc3ccccc3s2)c1 [Compound 136, N-(Benzo[b]thiophen-2-yl)-N-(4-fluoro-3-trifluoromethyl-benzyl)-3-carbomethoxy-benzenesulfonamide]
13 | 98% |  | 8 nM | COC(=O)c1cccc(S(=O)(=O)N(Cc2ccc(F)c(C(F)(F)F)c2)c2sc3ccccc3c2C)c1 [Compound 137, N-(3-Methyl-benzo[b]thiophen-2-yl)-N-(4-fluoro-3-trifluoromethyl-benzyl)-3-carbomethoxy-benzenesulfonamide]
14 | 83% |  | 13 nM | COC(=O)c1ccc(S(=O)(=O)N(Cc2ccc(F)c(C(F)(F)F)c2)c2sc3ccccc3c2C)cc1 [Compound 138, N-(3-Methyl-benzo[b]thiophen-2-yl)-N-(4-fluoro-3-trifluoromethyl-benzyl)-4-carbomethoxy-benzenesulfonamide]
15 | 91% |  | 62 nM | COC(=O)c1ccccc1S(=O)(=O)N(Cc1ccc(F)c(C(F)(F)F)c1)c1cc2ccccc2s1 [Compound 139, N-(Benzo[b]thiophen-2-yl)-N-(4-fluoro-3-trifluoromethyl-benzyl)-2-carbomethoxy-benzenesulfonamide]
16 |  | 98% | 2 nM | O=S(=O)(c1ccccc1)N(Cc1ccc(F)cc1)c1sc2ccccc2c1Br [Compound 140, N-(3-Bromo-benzo[b]thiophen-2-yl)-N-(4-fluoro-benzyl)-benzenesulfonamide]
17 | 18% |  |  | COc1ccc2c(Br)c(N(Cc3ccc(F)c(F)c3)S(=O)(=O)c3cccnc3)sc2c1 [Compound 141, N-(3-Bromo-6-methoxy-benzo[b]thiophen-2-yl)-N-(3,4-difluoro-benzyl)-pyridin-3-yl-sulfonamide]
18 |  | 60% |  | COc1cccc2cc(N(Cc3ccc(F)c(F)c3)S(=O)(=O)c3ccccc3)sc12 [Compound 142, N-(3,4-Difluoro-benzyl)-N-(7-methoxy-benzo[b]thiophen-2-yl)-benzenesulfonamide]

Row | inhibition at 0.2 µM | inhibition at 0.5 µM | IC50 | SMILES
19 |  | 48% |  | COc1cccc2c(Cl)c(N(Cc3ccc(F)c(F)c3)S(=O)(=O)c3ccccc3)sc12 [Compound 143, N-(3-Chloro-7-methoxy-benzo[b]thiophen-2-yl)-N-(3,4-difluoro-benzyl)-benzenesulfonamide]
20 |  | 62% |  | COc1c(Cl)ccc2c(Cl)c(N(Cc3ccc(F)c(F)c3)S(=O)(=O)c3ccccc3)sc12 [Compound 144, N-(3,6-Dichloro-7-methoxy-benzo[b]thiophen-2-yl)-N-(3,4-difluoro-benzyl)-benzenesulfonamide]
21 |  | 96% | 78.2 nM | O=S(=O)(c1ccccc1)N(Cc1ccc(F)c(F)c1)c1cc2cccnc2s1 [Compound 147, N-(3,4-Difluoro-benzyl)-N-thieno[2,3-b]pyridin-2-yl-benzenesulfonamide]
22 |  | 100% | 15.4 nM | Cn1cnc(S(=O)(=O)N(Cc2ccc(F)c(F)c2)c2sc3ccccc3c2Br)c1 [Compound 150, N-(3-Bromo-benzo[b]thiophen-2-yl)-N-(3,4-difluoro-benzyl)-1-methyl-1H-imidazole-4-sulfonamide]
23 |  | 96% | 16.7 nM | CS(=O)(=O)N(Cc1ccc(F)c(F)c1)c1sc2ccccc2c1Br [Compound 151, N-(3-Bromo-benzo[b]thiophen-2-yl)-N-(3,4-difluoro-benzyl)-methanesulfonamide]
24 |  | 95% | 2.6 nM | CCS(=O)(=O)N(Cc1ccc(F)c(F)c1)c1sc2ccccc2c1Br [Compound 152, N-(3-Bromo-benzo[b]thiophen-2-yl)-N-(3,4-difluoro-benzyl)-ethanesulfonamide]
25 |  | 97% | 18.8 nM | CCCS(=O)(=O)N(Cc1ccc(F)c(F)c1)c1sc2ccccc2c1Br [Compound 153, N-(3-Bromo-benzo[b]thiophen-2-yl)-N-(3,4-difluoro-benzyl)-propane-1-sulfonamide]
26 |  | 96% | 36.2 nM | CCCCS(=O)(=O)N(Cc1ccc(F)c(F)c1)c1sc2ccccc2c1Br [Compound 154, N-(3-Bromo-benzo[b]thiophen-2-yl)-N-(3,4-difluoro-benzyl)-butane-1-sulfonamide]
27 |  | 99% | 4 nM | O=S(=O)(c1cccc(F)c1)N(Cc1ccc(F)c(F)c1)c1sc2ccccc2c1Br [Compound 155, N-(3-Bromo-benzo[b]thiophen-2-yl)-N-(3,4-difluoro-benzyl)-3-fluoro-benzenesulfonamide]
28 |  | 65% |  | O=S(=O)(c1ccc(C(F)(F)F)cc1)N(Cc1ccc(F)c(F)c1)c1sc2ccccc2c1Br [Compound 156, N-(3-Bromo-benzo[b]thiophen-2-yl)-N-(3,4-difluoro-benzyl)-4-trifluoromethyl-benzenesulfonamide]
29 | 100% |  | 14 nM | CS(=O)(=O)N(Cc1ccc(F)c(C(F)(F)F)c1)c1sc2ccccc2c1Br [Compound 157, N-(3-Bromo-benzo[b]thiophen-2-yl)-N-(4-fluoro-3-trifluoromethyl-benzyl)-methanesulfonamide]
30 |  | 94% | 10.4 nM | O=S(=O)(c1ccccc1)N(Cc1ccc(Cl)cc1)c1sc2ccccc2c1Cl [Compound 158, N-(3-Chloro-benzo[b]thiophen-2-yl)-N-(4-chloro-benzyl)-benzenesulfonamide]
31 |  | 98% | 13.4 nM | O=S(=O)(c1ccccc1)N(Cc1ccc(Cl)cc1)c1sc2ccccc2c1Br [Compound 159, N-(3-Bromo-benzo[b]thiophen-2-yl)-N-(4-chloro-benzyl)-benzenesulfonamide]
32 |  | 97% | 35.8 nM | COc1ccccc1CN(c1sc2ccccc2c1Br)S(=O)(=O)c1ccccc1 [Compound 160, N-(3-Bromo-benzo[b]thiophen-2-yl)-N-(2-methoxy-benzyl)-benzenesulfonamide]
33 |  | 95% | 55.4 nM | COc1ccc(Br)cc1CN(c1sc2ccccc2c1Br)S(=O)(=O)c1ccccc1 [Compound 161, N-(3-Bromo-benzo[b]thiophen-2-yl)-N-(5-bromo-2-methoxy-benzyl)-benzenesulfonamide]
34 |  | 101% | 4.5 nM | COc1cccc(CN(c2sc3ccccc3c2Br)S(=O)(=O)c2ccccc2)c1 [Compound 162, N-(3-Bromo-benzo[b]thiophen-2-yl)-N-(3-methoxy-benzyl)-benzenesulfonamide]
35 |  | 92% | 63.9 nM | COc1ccc(Br)c(CN(c2sc3ccccc3c2Br)S(=O)(=O)c2ccccc2)c1 [Compound 163, N-(3-Bromo-benzo[b]thiophen-2-yl)-N-(2-bromo-5-methoxy-benzyl)-benzenesulfonamide]

Source: patent publication US9434711B2 (Janssen Pharmaceutica, NV, priority 2007, dated 2016)
